Our source for the viability and minimum viability values is PubChem BioAssay AID2286 (Southern Research Specialized Biocontainment Screening …, 2010).

As usually defined, the viability is a read-out of living cells in per cent, often relative to untreated cells.

The experiment is described as follows: MAGI-CCR5 and HeLa-R5-16 cytotoxicity, dose response, cytotoxicity control for HIV-1 fusion inhibitor project, cell-based, MAGI and MAGI-HeLa co-culture (AID 2286).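 For all read-outs here: cells exposed to compound for at least 64 h before ATP readout; 100% = median of DMSO vehicle wells with no ATP signal meaning 0%.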 The note with it: MAGI-CCR5 cells viability, CellTiter-Glo ATP luminescence; for minimum viability: measured here: MAGI minimum viability across doses. In general terms: ATP-based viability assays read luminescence as a measure of living cells.

[1] abbreviates: MAGI-HeLa co-culture viability, at 50 µM, stronger effect = lower value.
Where [2] appears, read: at 12.5 µM, stronger effect = lower value.
Setting [3] is: at 1.56 µM, stronger effect = lower value.
Where [4] appears, read: at 6.25 µM, stronger effect = lower value.
Where [5] appears, read: at 0.78 µM, stronger effect = lower value.
Setting [6] is: at 3.13 µM, stronger effect = lower value.

Calls of active or inactive are those of the source.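 Rule for the calls: active = minimum cell viability of 80% or lower across the dose range, counted as toxic; inactive = minimum cell viability above 80%.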

For the molecule `NS(=O)(=O)c1cc(C(=O)NC2CCSc3ccccc32)ccc1Cl` (centres undefined), the viability was 103% under setting [1] and 84.3% (inactive) (at 50 µM (top of the series)). Further, the minimum viability (at 50 µM, stronger effect = lower value) turned out to be 84.3%.

For the molecule `Cc1noc(NS(=O)(=O)c2ccc(NC(=O)Nc3ccc(Cl)c(Cl)c3)cc2)c1C`, the viability was 120% under setting [1] and 95.5% (inactive) (at 50 µM (top of the series)). Moreover, the minimum viability under setting [2] amounted to 93%.

As for `Cc1cc(/C=C2\C(=N)N3N=C(S(C)(=O)=O)SC3=NC2=O)c(C)n1Cc1ccccc1`, the viability is 116% under setting [1] and 110% (inactive) (at 50 µM (top of the series)). For the same molecule, the minimum viability (at 25 µM, stronger effect = lower value) came to 106%.

Turning to `O=C(Nc1ccc(-c2nc3ccccc3[nH]2)cc1)c1ccccc1NS(=O)(=O)c1ccc(F)cc1`, the viability under setting [1] stood at 116%. In addition, under “at 50 µM, stronger effect = lower value”, the minimum viability is 64.3%.

Regarding `CC(Oc1ccc(Cl)cc1Cl)C(=O)Nc1ccc(S(=O)(=O)Nc2cnc3ccccc3n2)cc1` (centres undefined), under setting [1], the viability was determined as 96.5%. The minimum viability (at 50 µM, stronger effect = lower value) was 66.7%.

Regarding `COc1cc(/C=C2\C(=N)N3N=C(S(C)(=O)=O)SC3=NC2=O)ccc1OC(=O)c1ccco1`, the viability under setting [1] is 102% and the viability (at 50 µM (top of the series)) is 101% (inactive). The minimum viability under setting [3] is 87.6%.

On to `CCOc1cc(Br)cc(C(c2c(C(=O)O)[nH]c3ccccc23)c2c(C(=O)O)[nH]c3ccccc23)c1O`, for which the viability is 100% under setting [1] and 87% (inactive) (at 50 µM (top of the series)). Also, the minimum viability under setting [4] was 82.9%.

As to `O=C(O)CCN1C(=O)/C(=C\c2cccc(OCC(=O)Nc3ccc(Cl)cc3)c2)SC1=S`, the viability under setting [1] was found to be 88%. In addition, the minimum viability (at 50 µM, stronger effect = lower value) is 73.5%.

For the molecule `CC(C)S(=O)(=O)C1=NSC2=NC(=O)/C(=C\c3ccc(OC(=O)c4ccco4)cc3)C(=N)N21`, the viability by setting is: under setting [1], 100%; (at 50 µM (top of the series)) 103% (inactive). The minimum viability under setting [3] came out at 84.2%.

For the molecule `O=c1oc2ccccc2c(O)c1C(c1ccc([N+](=O)[O-])cc1)c1c(O)c2ccccc2oc1=O`, under setting [1], the viability was 133%. Besides, the minimum viability (at 50 µM, stronger effect = lower value) came to 68.8%.

Consider `O=C(O)c1cc(-c2ccc(/C=C3\NC(=O)N(c4ccc(Cl)cc4)C3=O)o2)ccc1Cl`, for which the viability is 95.2% under setting [1] and 102% (inactive) (at 50 µM (top of the series)). In addition, the minimum viability under setting [5] amounted to 93.3%.

For the molecule `O=C(O)c1cc(-c2ccc(/C=N/Nc3ccc(Cl)cc3)o2)ccc1Cl`, the viability under setting [1] came to 87.3%. Also, the minimum viability (at 50 µM, stronger effect = lower value) was determined as 62%.

On to `CCc1nnc(NS(=O)(=O)c2ccc(NC(=S)NC(=O)/C=C/c3ccc(C(C)C)cc3)cc2)s1`, for which the viability reads like this: under setting [1], 117%; (at 50 µM (top of the series)) 82.2% (inactive). Further, the minimum viability (at 50 µM, stronger effect = lower value) was 82.2%.

On to `C=CCOC(=O)C1=C(C)N=c2s/c(=C3\C(=O)N(CC(=O)O)c4ccccc43)c(=O)n2C1c1ccc(OC)cc1` (centres undefined), for which the viability is 105% under setting [1] and 97.3% (inactive) (at 50 µM (top of the series)). For the same molecule, the minimum viability (at 25 µM, stronger effect = lower value) stood at 85.1%.

Turning to `O=C(O)c1ccc(Cl)c(S(=O)(=O)Nc2ccccc2C(=O)Nc2ccc(Cl)cc2)c1`, the viability runs as follows: under setting [1], 92.9%; (at 50 µM (top of the series)) 82.6% (inactive). In addition, where the note is “at 50 µM, stronger effect = lower value”, the minimum viability is 82.6%.

As to `CCOc1cc(/C=N/NC(=O)c2ccc(-c3csc(Nc4ccc(C)cc4)n3)cc2)ccc1OCC(=O)O`, the viability was 92.6% under setting [1] and 90.2% (inactive) (at 50 µM (top of the series)). For the same molecule, under setting [2], the minimum viability amounted to 83.3%.

As to `COc1ccc(NC(=O)c2c[nH]n3c(=O)cc(C4CCN(C(=O)OC(C)(C)C)CC4)nc23)cc1Cl`, the viability runs as follows: under setting [1], 94.3%; (at 50 µM (top of the series)) 88.3% (inactive). Besides, the minimum viability (at 50 µM, stronger effect = lower value) was 88.3%.

On to `O=C1NN(c2ccc(Cl)c(Cl)c2)C(=O)/C1=C/c1ccc(-c2ccccc2C(=O)O)o1`, for which the viability under setting [1] turned out to be 121% and the viability (at 50 µM (top of the series)) is 105% (inactive). Also, under setting [3], the minimum viability was 89.7%.

In the case of `COc1ccc(/C=N/NC(=O)c2[nH]c3ccc(Br)cc3c2-c2ccccc2)c(C(=O)O)c1OC`, the viability under setting [1] came out at 95% and the viability (at 50 µM (top of the series)) is 90.4% (inactive). Also, for the setting “at 50 µM, stronger effect = lower value”, the minimum viability was determined as 90.4%.

As to `COc1ccccc1OCCOc1ccc(/C=C2\C(=N)N3N=C(S(C)(=O)=O)SC3=NC2=O)cc1`, the viability under setting [1] came to 98.1% and the viability (at 50 µM (top of the series)) is 89.2% (inactive). In addition, the minimum viability (at 50 µM, stronger effect = lower value) came to 89.2%.

On to `O=c1[nH]c(=S)[nH]c2c1C(c1ccc(Br)cc1)c1c([nH]c(=S)[nH]c1=O)O2`, for which the viability was 116% under setting [1] and 91.7% (inactive) (at 50 µM (top of the series)). Further, the minimum viability under setting [2] stood at 82.5%.

Consider `O=C(O)/C=C/C(=O)Nc1ccc(C2(c3ccc(NC(=O)/C=C/C(=O)O)cc3)c3ccccc3-c3ccccc32)cc1`, for which the viability is 120% under setting [1] and 93.2% (inactive) (at 50 µM (top of the series)). The minimum viability (at 25 µM, stronger effect = lower value) was 88.8%.

Consider `COc1cc(/C=C2/C(=O)NN(c3ccc(C)c(Cl)c3)C2=O)cc([N+](=O)[O-])c1O`, for which the viability reads like this: under setting [1], 103%; (at 50 µM (top of the series)) 107% (inactive). Further, under setting [3], the minimum viability is 91.2%.

Turning to `O=C(N/N=C/c1cc(Br)c(O)c(Br)c1)c1cc2c(ccc3ccccc32)o1`, the viability is 112% under setting [1] and 81.4% (inactive) (at 25 µM (top of the series)). Further, the minimum viability (at 25 µM, stronger effect = lower value) is 81.4%.

As for `C=CCOc1ccc(C(c2c(C(=O)O)[nH]c3ccccc23)c2c(C(=O)O)[nH]c3ccccc23)cc1`, the viability under setting [1] turned out to be 89% and the viability (at 50 µM (top of the series)) is 91.1% (inactive). Under “at 25 µM, stronger effect = lower value”, the minimum viability is 85.9%.

In the case of `O=C(Nc1ccc(C(=O)O)cc1)/C(=C\C=C\c1ccccc1)NC(=O)c1cccc(Br)c1`, the viability reads like this: under setting [1], 85.1%; (at 50 µM (top of the series)) 89.9% (inactive). Under setting [4], the minimum viability amounted to 83.2%.

In the case of `O=C(O)c1cc(N/N=C/c2ccc(-c3ccccc3)cc2)ccc1Cl`, under setting [1], the viability is 87.4%. Also, the minimum viability (at 50 µM, stronger effect = lower value) came out at 69.9%.

As to `Cc1ccc(-c2cc(C(=O)Nc3ccc(S(=O)(=O)Nc4onc(C)c4C)cc3)c3ccccc3n2)cc1`, the viability under setting [1] is 89.9% and the viability (at 50 µM (top of the series)) is 98.7% (inactive). Under setting [6], the minimum viability was found to be 86%.

Turning to `CCC(Sc1nc2ccsc2c(=O)n1Cc1ccc(C(=O)O)cc1)C(=O)Nc1ccc(C)c(Cl)c1` (centres undefined), the viability was 98% under setting [1] and 93.6% (inactive) (at 25 µM (top of the series)). Besides, under setting [6], the minimum viability worked out at 86.7%.

On to `COc1cccc(NS(=O)(=O)c2ccc3c(c2)C2C=CCC2C(c2ccc(C(=O)O)cc2)N3)c1` (centres undefined), for which the viability by setting is: under setting [1], 120%; (at 50 µM (top of the series)) 108% (inactive). Under setting [3], the minimum viability is 88.6%.

Consider `COc1ccc(N2C(=O)/C(=C/c3ccco3)C(=O)NC2=S)cc1`, for which the viability runs as follows: under setting [1], 86.3%; (at 50 µM (top of the series)) 100% (inactive). Besides, the minimum viability under setting [3] was found to be 84.8%.

Turning to `CCOC(=O)C1=C(C)N=c2s/c(=C\c3ccc(OCC(=O)O)c(OC)c3)c(=O)n2C1c1ccc(OC)cc1` (centres undefined), the viability by setting is: under setting [1], 107%; (at 50 µM (top of the series)) 97.1% (inactive). The minimum viability under setting [3] was found to be 88%.

`Cc1c(CC(=O)O)c(=O)oc2c(C)c3occ(-c4ccc(Br)cc4)c3cc12`: the viability under setting [1] worked out at 123%. Also, under “at 50 µM, stronger effect = lower value”, the minimum viability came to 75.8%.

For `CCOc1ccc2nc(NC(=O)CSc3nc(-c4ccccc4)c(C#N)c(=O)[nH]3)sc2c1`, the viability was 125% under setting [1] and 105% (inactive) (at 50 µM (top of the series)). For the same molecule, the minimum viability under setting [5] amounted to 92.7%.

Regarding `O=C(O)CCCN1C(=O)/C(=C/c2ccc(-c3nc4ccccc4s3)o2)SC1=S`, the viability by setting is: under setting [1], 99.7%; (at 50 µM (top of the series)) 92.1% (inactive). Also, for the setting “at 0.1 µM, stronger effect = lower value”, the minimum viability was found to be 87.2%.

Take `COc1cc(NS(=O)(=O)c2ccc(NC(=S)NC(=O)c3sc4ccccc4c3Cl)cc2)nc(OC)n1`: under setting [1], the viability came out at 105%. Moreover, where the note is “at 50 µM, stronger effect = lower value”, the minimum viability worked out at 76.8%.

Turning to `COc1ccc(-c2cc(-c3ccc(Cl)cc3)c(C#N)c(SCC(=O)O)n2)cc1`, the viability reads like this: under setting [1], 96.4%; (at 50 µM (top of the series)) 82.1% (inactive). Besides, the minimum viability (at 50 µM, stronger effect = lower value) amounted to 82.1%.

Turning to `CCCOc1ccc(C2C(C(=O)c3cc4ccccc4o3)=C(O)C(=O)N2c2cc(C)on2)cc1` (centres undefined), the viability under setting [1] turned out to be 97.9%. Further, the minimum viability (at 50 µM, stronger effect = lower value) amounted to 67.9%.

On to `COc1ccc(-c2csc(NC(=O)CSc3nc(C)nc4sc(C(=O)O)c(C)c34)n2)cc1`, for which the viability under setting [1] came out at 109% and the viability (at 50 µM (top of the series)) was 99.7% (inactive). Also, under setting [3], the minimum viability turned out to be 83.4%.

`Cc1cccc(S(=O)(=O)Nc2nc3ccccc3nc2Nc2cccc(C(=O)O)c2)c1`: the viability was 100% under setting [1] and 88.6% (inactive) (at 50 µM (top of the series)). Where the note is “at 50 µM, stronger effect = lower value”, the minimum viability is 88.6%.

`O=C(Nc1cc(C(=O)Nc2ccccc2C(=O)O)cc(C(=O)Nc2ccccc2C(=O)O)c1)c1ccccc1`: the viability was 122% under setting [1] and 113% (inactive) (at 50 µM (top of the series)). In addition, the minimum viability under setting [4] came out at 90.9%.

On to `CCCCCC#CCC#CCC#CCC#CCCCC(=O)O`, for which the viability reads like this: under setting [1], 119%; (at 50 µM (top of the series)) 94.8% (inactive). In addition, the minimum viability under setting [6] was found to be 89.9%.

Turning to `Cc1ccc(/C=C2\SC(=S)N(CCCC(=O)Nc3ccccc3C(=O)O)C2=O)cc1`, the viability under setting [1] came to 127%. In addition, the minimum viability (at 50 µM, stronger effect = lower value) was 63.9%.
